# Data as given in patent US8440718B2, “Modulation of inflammation related to columnar epithelia” (The Brigham and Women's Hospital, Inc., priority 1991, dated 2013).
# How the values were obtained:
# [1] = test system: T84 intestinal epithelial cells; test: fMLP-induced PMN migration after LXA4 exposure of T84 epithelial monolayers; format: cell-based, human
# Experimental: Lipoxins Synthetic LXA4, LXB4, and 11-trans-LXA4 were obtained from Cascade Biochem Ltd. (Berkshire, United Kingdom). Concentrations were determined from extinction coefficients as described in Sheppard K-A., et al. (1992). Biochimica et Biophysica Acta 1133: 223-234. All eicosanoid stock solutions were stored at −70° C. in […] (American Scientific Products). Eicosanoids were diluted in modified HBSS to a concentration of 1 μM prior to all experiments. PMN or T84 monolayers were exposed to lipoxins at indicated concentrations and allowed to incubate at 37° C. for the indicated period of time. Vehicle controls consisted of dilutions of the solvent (ethanol) equivalent to the highest concentration of lipoxin used in any given experiment (0.01%). […]
# Migration was quantitated by assaying for the PMN azurophilic granule marker myeloperoxidase (MPO) as described previously (Parkos C. A., et al. (1991). J. Clin. Invest 88: 1605-1612). Following each migration assay, non-adherent PMN were extensively washed from the surface of the monolayer and PMN cell equivalents (PMN CE), estimated from a standard curve, were assessed as the number of PMN's associated with the monolayer, the number which had completely traversed the monolayer (ie. across the monolayer into the reservoir bath), as well as the total number of transmigrating PMN (the sum of monolayer and reservoir-associated PMN). […]
# [2] = test system: human PMN migration across T84 epithelial monolayers; test: Effect of inhibitors on baseline and LXA4-elicited PMN transepithelial migration, apical-to-basolateral; format: cell-based; settings: for LXA4-elicited increase in fMLP driven PMN migration over control: LXA4 10 nM
structure (smiles),measurement,setting,value
"CCCCC[C@H](O)/C=C/C=C\C=C\C=C\[C@@H](O)[C@@H](O)CCCC(=O)O (relative stereo) [LXA4, (5S, 6R, 15S)-trihydroxy-7,9,13-trans-11-cis-eicosatetraenoic acid]",total number of transmigrating PMN,"[1]; T84 monolayers incubated with 10 nM LXA4 15 min 37°C, LXA4 not removed, untreated PMN, 1 μM fMLP",15.7±1.8 ×10^4 PMN CE/ml
same,total number of transmigrating PMN,"[1]; T84 monolayers incubated with 10 nM LXA4 15 min, LXA4 removed by washing thrice with HBSS before PMN",14.3±1.1 ×10^4 PMN CE/ml
same,LXA4-elicited increase in fMLP driven PMN migration over control,[2]; PMN pre-exposed to indomethacin 50 μM,61±11%
same,LXA4-elicited increase in fMLP driven PMN migration over control,[2]; without indomethacin,54±7%
same,LXA4-elicited increase in PMN migration compared to control,"[2]; LXA4 10 μM (so in the source), pertussis toxin experiment",46±3%
